From ChEMBL document CHEMBL1201862, “PubChem BioAssay data set” (2004)
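These data come from cells grown in 96-well plates and exposed to compound for 48 hours at five concentrations. GI50 = concentration required for 50% inhibition of growth.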 Activity calls are given as the source filed them. No stated cut-off is given here; in the data, active = GI50 up to about 1.1 µM and inactive = higher.

How the values were obtained:
Test in all cases: inhibition of tumour cell growth, NCI panel, 48 h
OVCAR-3 = test system: OVCAR-3
HL-60 = test system: HL-60
SW-620 = test system: SW-620
K562 = test system: K562
SNB-75 = test system: SNB-75
NCI-H522 = test system: NCI-H522
A549 = test system: A549
HOP-92 = test system: HOP-92
SNB-19 = test system: SNB-19
Malme-3M = test system: Malme-3M
LOX IMVI = test system: LOX IMVI
UACC-62 = test system: UACC-62
CAKI-1 = test system: CAKI-1
T47D = test system: T47D
SF-539 = test system: SF-539
M14 = test system: M14
OVCAR-8 = test system: OVCAR-8
HT-29 = test system: HT-29
UO-31 = test system: UO-31
MDA-MB-435 = test system: MDA-MB-435
HCC 2998 = test system: HCC 2998
NCI-H226 = test system: NCI-H226
SK-MEL-2 = test system: SK-MEL-2
ACHN = test system: ACHN
SK-MEL-5 = test system: SK-MEL-5
OVCAR-4 = test system: OVCAR-4
NCI-H23 = test system: NCI-H23
CCRF-CEM = test system: CCRF-CEM
SF-295 = test system: SF-295
PC-3 = test system: PC-3
KM12 = test system: KM12
DU-145 = test system: DU-145
NCI-H460 = test system: NCI-H460
SF-268 = test system: SF-268
UACC-257 = test system: UACC-257
SN12C = test system: SN12C
SK-MEL-28 = test system: SK-MEL-28
HCT-15 = test system: HCT-15
786-0 = test system: 786-0
U-251 = test system: U-251
OVCAR-5 = test system: OVCAR-5
IGROV-1 = test system: IGROV-1
MDA-N = test system: MDA-N
TK-10 = test system: TK-10
MCF7 = test system: MCF7
A498 = test system: A498
EKVX = test system: EKVX
MOLT-4 = test system: MOLT-4
BT-549 = test system: BT-549
NCI/ADR-RES = test system: NCI/ADR-RES
Hs-578T = test system: Hs-578T
SK-OV-3 = test system: SK-OV-3
MDA-MB-231 = test system: MDA-MB-231
COLO 205 = test system: COLO 205
HOP-62 = test system: HOP-62
HCT-116 = test system: HCT-116
RXF 393 = test system: RXF 393
RPMI-8226 = test system: RPMI-8226

Measured: GI50

O=c1[nH]c2ccccc2c(=O)c2cc3ccccc3cc12
inactive: OVCAR-3 22.7 µM | HL-60 40 µM | SW-620 65.5 µM | K562 > 100 µM | SNB-75 3.92 µM | NCI-H522 10.6 µM | A549 31.3 µM | HOP-92 3.9 µM | SNB-19 12.1 µM | Malme-3M 45.6 µM | LOX IMVI 27.9 µM | UACC-62 41.6 µM | CAKI-1 16.2 µM | T47D > 100 µM | SF-539 20.9 µM | M14 45.3 µM | OVCAR-8 10 µM | HT-29 > 100 µM | UO-31 35.3 µM | MDA-MB-435 > 100 µM | HCC 2998 > 100 µM | NCI-H226 16.7 µM | SK-MEL-2 22.5 µM | ACHN 33.7 µM | SK-MEL-5 49.2 µM | OVCAR-4 23.4 µM | NCI-H23 19.1 µM | CCRF-CEM 51.5 µM | SF-295 18.6 µM | PC-3 > 100 µM | KM12 97.3 µM | DU-145 26.9 µM | NCI-H460 16.4 µM | SF-268 3.42 µM | UACC-257 > 100 µM | SN12C 71.4 µM | SK-MEL-28 67 µM | 786-0 6.58 µM | U-251 6.28 µM | OVCAR-5 > 100 µM | IGROV-1 48.2 µM | MDA-N > 100 µM | TK-10 15.7 µM | MCF7 > 100 µM | A498 17.2 µM | EKVX > 100 µM | MOLT-4 92.9 µM | BT-549 15.7 µM | NCI/ADR-RES 26.6 µM | Hs-578T 8.81 µM | SK-OV-3 11.8 µM | MDA-MB-231 6.35 µM | COLO 205 88.7 µM | HOP-62 10.4 µM | HCT-116 5.78 µM | RXF 393 18 µM
74.8 µM: HCT-15

Cc1ccc(C(=O)Nc2ccc(CP(=O)(O)O)cc2)cc1NC(=O)Nc1cc(C(=O)Nc2ccc(CP(=O)(O)O)cc2)ccc1C
inactive: OVCAR-3 > 100 µM | HL-60 > 100 µM | SW-620 > 100 µM | SNB-75 > 100 µM | NCI-H522 > 100 µM | A549 > 100 µM | Malme-3M > 100 µM | LOX IMVI > 100 µM | UACC-62 > 100 µM | CAKI-1 > 100 µM | T47D > 100 µM | SF-539 > 100 µM | M14 > 100 µM | OVCAR-8 > 100 µM | HT-29 > 100 µM | UO-31 > 100 µM | MDA-MB-435 > 100 µM | HCC 2998 > 100 µM | NCI-H226 > 100 µM | SK-MEL-2 > 100 µM | SK-MEL-5 > 100 µM | OVCAR-4 > 100 µM | NCI-H23 > 100 µM | CCRF-CEM > 100 µM | SF-295 > 100 µM | PC-3 > 100 µM | KM12 > 100 µM | DU-145 > 100 µM | NCI-H460 > 100 µM | SF-268 > 100 µM | UACC-257 > 100 µM | SN12C > 100 µM | SK-MEL-28 > 100 µM | 786-0 > 100 µM | U-251 > 100 µM | OVCAR-5 > 100 µM | IGROV-1 > 100 µM | MDA-N > 100 µM | RPMI-8226 > 100 µM | TK-10 > 100 µM | MCF7 > 100 µM | A498 > 100 µM | EKVX > 100 µM | MOLT-4 > 100 µM | BT-549 > 100 µM | NCI/ADR-RES > 100 µM | Hs-578T > 100 µM | SK-OV-3 > 100 µM | MDA-MB-231 > 100 µM | COLO 205 > 100 µM | HOP-62 > 100 µM | HCT-116 > 100 µM | RXF 393 > 100 µM
> 100 µM: HCT-15
